{"source": "the NIST ThermoML archive (doi:10.1007/s10765-019-2537-x)", "conditions": "Liquid, transient hot wire", "note": "Numbers after ± are expanded uncertainties.", "data": [{"compound": "Cc1ccccc1", "note": "[toluene]", "values": [{"measurement": "thermal conductivity", "setting": "317.39 K, 5130 kPa", "result": "0.1266 ± 0.04", "unit": "W/m/K"}, {"measurement": "thermal conductivity", "setting": "317.42 K, 1050 kPa", "result": "0.1251 ± 0.04", "unit": "W/m/K"}, {"measurement": "thermal conductivity", "setting": "317.42 K, 10550 kPa", "result": "0.1277 ± 0.04", "unit": "W/m/K"}, {"measurement": "thermal conductivity", "setting": "317.46 K, 15330 kPa", "result": "0.1292 ± 0.04", "unit": "W/m/K"}, {"measurement": "thermal conductivity", "setting": "317.52 K, 20330 kPa", "result": "0.133 ± 0.04", "unit": "W/m/K"}, {"measurement": "thermal conductivity", "setting": "336.3 K, 20300 kPa", "result": "0.1267 ± 0.04", "unit": "W/m/K"}, {"measurement": "thermal conductivity", "setting": "336.32 K, 10150 kPa", "result": "0.1229 ± 0.04", "unit": "W/m/K"}, {"measurement": "thermal conductivity", "setting": "336.34 K, 15140 kPa", "result": "0.1245 ± 0.04", "unit": "W/m/K"}, {"measurement": "thermal conductivity", "setting": "336.39 K, 5020 kPa", "result": "0.1205 ± 0.04", "unit": "W/m/K"}, {"measurement": "thermal conductivity", "setting": "336.42 K, 1030 kPa", "result": "0.1194 ± 0.04", "unit": "W/m/K"}, {"measurement": "thermal conductivity", "setting": "356.27 K, 15170 kPa", "result": "0.1205 ± 0.04", "unit": "W/m/K"}, {"measurement": "thermal conductivity", "setting": "356.27 K, 20040 kPa", "result": "0.1218 ± 0.04", "unit": "W/m/K"}, {"measurement": "thermal conductivity", "setting": "356.36 K, 10440 kPa", "result": "0.1184 ± 0.04", "unit": "W/m/K"}, {"measurement": "thermal conductivity", "setting": "356.41 K, 1160 kPa", "result": "0.1131 ± 0.04", "unit": "W/m/K"}, {"measurement": "thermal conductivity", "setting": "356.43 K, 5170 kPa", "result": "0.1166 ± 0.04", "unit": "W/m/K"}, {"measurement": "thermal conductivity", "setting": "376.88 K, 20030 kPa", "result": "0.1185 ± 0.04", "unit": "W/m/K"}, {"measurement": "thermal conductivity", "setting": "376.95 K, 5200 kPa", "result": "0.1108 ± 0.04", "unit": "W/m/K"}, {"measurement": "thermal conductivity", "setting": "376.95 K, 10160 kPa", "result": "0.1124 ± 0.04", "unit": "W/m/K"}, {"measurement": "thermal conductivity", "setting": "376.95 K, 15270 kPa", "result": "0.1147 ± 0.04", "unit": "W/m/K"}, {"measurement": "thermal conductivity", "setting": "377.07 K, 1080 kPa", "result": "0.1096 ± 0.04", "unit": "W/m/K"}, {"measurement": "thermal conductivity", "setting": "395.96 K, 15140 kPa", "result": "0.1121 ± 0.04", "unit": "W/m/K"}, {"measurement": "thermal conductivity", "setting": "396.23 K, 10180 kPa", "result": "0.1091 ± 0.04", "unit": "W/m/K"}, {"measurement": "thermal conductivity", "setting": "396.26 K, 20010 kPa", "result": "0.1141 ± 0.04", "unit": "W/m/K"}, {"measurement": "thermal conductivity", "setting": "396.28 K, 5150 kPa", "result": "0.1072 ± 0.04", "unit": "W/m/K"}, {"measurement": "thermal conductivity", "setting": "396.32 K, 1030 kPa", "result": "0.1059 ± 0.04", "unit": "W/m/K"}, {"measurement": "thermal conductivity", "setting": "416.29 K, 20250 kPa", "result": "0.1104 ± 0.04", "unit": "W/m/K"}, {"measurement": "thermal conductivity", "setting": "416.33 K, 15150 kPa", "result": "0.1066 ± 0.04", "unit": "W/m/K"}, {"measurement": "thermal conductivity", "setting": "416.68 K, 5290 kPa", "result": "0.1033 ± 0.04", "unit": "W/m/K"}, {"measurement": "thermal conductivity", "setting": "416.72 K, 10280 kPa", "result": "0.1054 ± 0.04", "unit": "W/m/K"}, {"measurement": "thermal conductivity", "setting": "416.75 K, 1040 kPa", "result": "0.1013 ± 0.04", "unit": "W/m/K"}, {"measurement": "thermal conductivity", "setting": "436.23 K, 20100 kPa", "result": "0.1051 ± 0.04", "unit": "W/m/K"}, {"measurement": "thermal conductivity", "setting": "436.34 K, 15130 kPa", "result": "0.1036 ± 0.04", "unit": "W/m/K"}, {"measurement": "thermal conductivity", "setting": "436.37 K, 1020 kPa", "result": "0.0972 ± 0.04", "unit": "W/m/K"}, {"measurement": "thermal conductivity", "setting": "436.48 K, 10230 kPa", "result": "0.1026 ± 0.04", "unit": "W/m/K"}, {"measurement": "thermal conductivity", "setting": "436.52 K, 5170 kPa", "result": "0.0992 ± 0.04", "unit": "W/m/K"}, {"measurement": "thermal conductivity", "setting": "456.02 K, 20030 kPa", "result": "0.1029 ± 0.04", "unit": "W/m/K"}, {"measurement": "thermal conductivity", "setting": "456.04 K, 5400 kPa", "result": "0.0956 ± 0.04", "unit": "W/m/K"}, {"measurement": "thermal conductivity", "setting": "456.22 K, 15290 kPa", "result": "0.1003 ± 0.04", "unit": "W/m/K"}, {"measurement": "thermal conductivity", "setting": "456.24 K, 10330 kPa", "result": "0.099 ± 0.04", "unit": "W/m/K"}, {"measurement": "thermal conductivity", "setting": "456.26 K, 1140 kPa", "result": "0.0928 ± 0.04", "unit": "W/m/K"}, {"measurement": "thermal conductivity", "setting": "476.35 K, 10170 kPa", "result": "0.0941 ± 0.04", "unit": "W/m/K"}, {"measurement": "thermal conductivity", "setting": "476.38 K, 20260 kPa", "result": "0.0994 ± 0.04", "unit": "W/m/K"}, {"measurement": "thermal conductivity", "setting": "476.61 K, 1110 kPa", "result": "0.0901 ± 0.04", "unit": "W/m/K"}, {"measurement": "thermal conductivity", "setting": "476.73 K, 5010 kPa", "result": "0.0914 ± 0.04", "unit": "W/m/K"}, {"measurement": "thermal conductivity", "setting": "476.75 K, 15330 kPa", "result": "0.0965 ± 0.04", "unit": "W/m/K"}, {"measurement": "thermal conductivity", "setting": "496.03 K, 20300 kPa", "result": "0.0962 ± 0.04", "unit": "W/m/K"}, {"measurement": "thermal conductivity", "setting": "496.15 K, 2850 kPa", "result": "0.0875 ± 0.04", "unit": "W/m/K"}, {"measurement": "thermal conductivity", "setting": "496.27 K, 15290 kPa", "result": "0.0945 ± 0.04", "unit": "W/m/K"}, {"measurement": "thermal conductivity", "setting": "496.31 K, 10420 kPa", "result": "0.0928 ± 0.04", "unit": "W/m/K"}, {"measurement": "thermal conductivity", "setting": "496.49 K, 5210 kPa", "result": "0.087 ± 0.04", "unit": "W/m/K"}, {"measurement": "thermal conductivity", "setting": "516.06 K, 20190 kPa", "result": "0.094 ± 0.04", "unit": "W/m/K"}, {"measurement": "thermal conductivity", "setting": "516.2 K, 15360 kPa", "result": "0.0916 ± 0.04", "unit": "W/m/K"}, {"measurement": "thermal conductivity", "setting": "516.21 K, 10220 kPa", "result": "0.0906 ± 0.04", "unit": "W/m/K"}, {"measurement": "thermal conductivity", "setting": "516.4 K, 5090 kPa", "result": "0.0862 ± 0.04", "unit": "W/m/K"}, {"measurement": "thermal conductivity", "setting": "536.3 K, 10150 kPa", "result": "0.0873 ± 0.04", "unit": "W/m/K"}, {"measurement": "thermal conductivity", "setting": "536.39 K, 15400 kPa", "result": "0.0897 ± 0.04", "unit": "W/m/K"}, {"measurement": "thermal conductivity", "setting": "536.56 K, 20330 kPa", "result": "0.0921 ± 0.04", "unit": "W/m/K"}, {"measurement": "thermal conductivity", "setting": "556.53 K, 15430 kPa", "result": "0.0908 ± 0.04", "unit": "W/m/K"}, {"measurement": "thermal conductivity", "setting": "556.59 K, 20100 kPa", "result": "0.0927 ± 0.04", "unit": "W/m/K"}, {"measurement": "thermal conductivity", "setting": "556.68 K, 10050 kPa", "result": "0.0869 ± 0.04", "unit": "W/m/K"}, {"measurement": "thermal conductivity", "setting": "576.72 K, 20150 kPa", "result": "0.0885 ± 0.04", "unit": "W/m/K"}]}]}
